# Source: US20070249590A1, “Substituted indolo[2,3-a]pyrrolo[3,4-c]carbazole compounds useful in treating kinase disorders” (priority 2005, published 2007)
# Target: T1, JAK3 (JH1 and JH2 domain) (Homo sapiens, UniProt P52333)
# T1 sequence (P52333 521-1111 limits assumed): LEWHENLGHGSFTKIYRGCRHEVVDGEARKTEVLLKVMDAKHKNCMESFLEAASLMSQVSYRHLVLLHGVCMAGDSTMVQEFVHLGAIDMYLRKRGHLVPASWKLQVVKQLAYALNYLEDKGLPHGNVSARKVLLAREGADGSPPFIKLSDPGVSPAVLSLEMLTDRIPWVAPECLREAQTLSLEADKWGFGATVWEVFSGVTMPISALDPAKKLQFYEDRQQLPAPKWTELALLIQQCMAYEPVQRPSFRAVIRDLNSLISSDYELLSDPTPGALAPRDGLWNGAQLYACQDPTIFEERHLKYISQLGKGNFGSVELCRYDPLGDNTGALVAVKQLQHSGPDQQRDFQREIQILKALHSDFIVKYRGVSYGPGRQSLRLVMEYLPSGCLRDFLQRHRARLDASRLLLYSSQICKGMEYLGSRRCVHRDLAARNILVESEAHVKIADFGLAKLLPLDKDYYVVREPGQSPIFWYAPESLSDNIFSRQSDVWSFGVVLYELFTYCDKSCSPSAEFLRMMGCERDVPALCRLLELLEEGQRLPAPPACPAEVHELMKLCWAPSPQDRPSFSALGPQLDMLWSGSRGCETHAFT
# Experiment: JAK3 Kinase Assay (ELISA of peptide substrate phosphorylation)
# Type: biochemical
# Conditions: purified JAK3 enzyme, 10 μM ATP, biotinylated peptide substrate, 1 hour at room temperature
# Summary of the method: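 Sf21-baculovirus-expressed JAK3 (JH1+JH2), glutathione-bead purified, with biotinylated peptide substrate (in buffer containing 10 μM ATP) in HEPES pH 7.5/MgCl2/DTT, 1 h RT. Product was captured on Neutravidin, detected with HRP anti-phosphotyrosine (PY99)/TMB, OD 450/650 nm. Triplicate 16-point half-log series from 200 μM gave IC50; otherwise % inhibition at 1 μM.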
row,Compound,IC50 [nM]
1,"O=C1NC(=O)c2c1c1c3ccccc3n3c1c1c2c2ccccc2n1CC(OC(=O)N1CCOCC1)C(O)C3 (stereo not shown) [Cpd 98, 12,13-[2-(morpholin-4-yl-carbonyloxy)-3-hydroxy-butan-1,4-yl]-12,13-dihydro-5,7-dioxo-6H-indolo[2,3-a]pyrrolo[3,4-c]carbazole]",108
2,"O=C1NC(=O)c2c1c1c3ccccc3n3c1c1c2c2ccccc2n1CC(OC(=O)N1CCCCC1)C(O)C3 (stereo not shown) [Cpd 99, 12,13-[2-(piperidin-1-yl-carbonyloxy)-3-hydroxy-butan-1,4-yl]-12,13-dihydro-5,7-dioxo-6H-indolo[2,3-a]pyrrolo[3,4-c]carbazole]",184
3,"CN(C)C1CCN(C(=O)OC2Cn3c4ccccc4c4c5c(c6c7ccccc7n(c6c43)CC2O)C(=O)NC5=O)C1 (stereo not shown) [Cpd 100, 12,13-{2-[(3-dimethyl-pyrrolidin-1-yl)carbonyloxy]-3-hydroxy-butan-1,4-yl}-12,13-dihydro-5,7-dioxo-6H-indolo[2,3-a]pyrrolo[3,4-c]carbazole]",173
4,"O=C1NC(=O)c2c1c1c3ccccc3n3c1c1c2c2ccccc2n1CC(OC(=O)N1CCN(C2CCCCC2)CC1)C(O)C3 (stereo not shown) [Cpd 101, 12,13-{2-[(4-cyclohexyl-piperazin-1-yl)carbonyloxy]-3-hydroxy-butan-1,4-yl}-12,13-dihydro-5,7-dioxo-6H-indolo[2,3-a]pyrrolo[3,4-c]carbazole]",1100
5,"O=C1NC(=O)c2c1c1c3ccccc3n3c1c1c2c2ccccc2n1CC(OC(=O)N1CCN(c2ccccc2)CC1)C(O)C3 (stereo not shown) [Cpd 102, 12,13-{2-[(4-phenyl-piperazin-1-yl)carbonyloxy]-3-hydroxy-butan-1,4-yl}-12,13-dihydro-5,7-dioxo-6H-indolo[2,3-a]pyrrolo[3,4-c]carbazole]",81
6,"O=C1NC(=O)c2c1c1c3ccccc3n3c1c1c2c2ccccc2n1CC(OC(=O)N1CCN(C(c2ccccc2)c2ccccc2)CC1)C(O)C3 (stereo not shown) [Cpd 103, 12,13-{2-[(4-benzhydryl-piperazin-1-yl)carbonyloxy]-3-hydroxy-butan-1,4-yl}-12,13-dihydro-5,7-dioxo-6H-indolo[2,3-a]pyrrolo[3,4-c]carbazole]",436
7,"O=C1NC(=O)c2c1c1c3ccccc3n3c1c1c2c2ccccc2n1CC(OC(=O)N1CCN(CCO)CC1)C(O)C3 (stereo not shown) [Cpd 104, 12,13-(2-{[4-(2-hydroxy-ethyl)piperazin-1-yl]carbonyloxy}-3-hydroxy-butan-1,4-yl)-12,13-dihydro-5,7-dioxo-6H-indolo[2,3-a]pyrrolo[3,4-c]carbazole]",127
8,"NS(=O)(=O)c1ccc(CCNC(=O)OC2Cn3c4ccccc4c4c5c(c6c7ccccc7n(c6c43)CC2O)C(=O)NC5=O)cc1 (stereo not shown) [Cpd 105, 12,13-(2-{[2-(4-sulfonylamino-phenyl)ethyl]carbamoyloxy}-3-hydroxy-butan-1,4-yl)-12,13-dihydro-5,7-dioxo-6H-indolo[2,3-a]pyrrolo[3,4-c]carbazole]",15
9,"CN(C)CCN(C)C(=O)OC1Cn2c3ccccc3c3c4c(c5c6ccccc6n(c5c32)CC1O)C(=O)NC4=O (stereo not shown) [Cpd 107, 12,13-(2-{[N-methyl-N-(2-dimethylamino-ethyl)]carbamoyloxy}-3-hydroxy-butan-1,4-yl)-12,13-dihydro-5,7-dioxo-6H-indolo[2,3-a]pyrrolo[3,4-c]carbazole]",180
10,"CN1CCC(N(C)C(=O)OC2Cn3c4ccccc4c4c5c(c6c7ccccc7n(c6c43)CC2O)C(=O)NC5=O)C1 (stereo not shown) [Cpd 108, 12,13-(2-{[N-methyl-N-(1-methyl-pyrrolidin-3-yl)]carbamoyloxy}-3-hydroxy-butan-1,4-yl)-12,13-dihydro-5,7-dioxo-6H-indolo[2,3-a]pyrrolo[3,4-c]carbazole]",46
11,"CN(C)CCCN(CCCN(C)C)C(=O)OC1Cn2c3ccccc3c3c4c(c5c6ccccc6n(c5c32)CC1O)C(=O)NC4=O (stereo not shown) [Cpd 109, 12,13-(2-{[N,N-bis-(3-dimethylamino-prop-1-yl)]carbamoyloxy}-3-hydroxy-butan-1,4-yl)-12,13-dihydro-5,7-dioxo-6H-indolo[2,3-a]pyrrolo[3,4-c]carbazole]",> 200
12,"O=C1NC(=O)c2c1c1c3ccccc3n3c1c1c2c2ccccc2n1CC(OC(=O)N1CCN(CCc2ccccc2)CC1)C(O)C3 (stereo not shown) [Cpd 110, 12,13-(2-{[4-(2-phenyl-ethyl)piperazin-1-yl]carbamoyloxy}-3-hydroxy-butan-1,4-yl)-12,13-dihydro-5,7-dioxo-6H-indolo[2,3-a]pyrrolo[3,4-c]carbazole]",916
13,"O=C1NC(=O)c2c1c1c3ccccc3n3c1c1c2c2ccccc2n1CC(OC(=O)N1CCCNCC1)C(O)C3 (stereo not shown) [Cpd 111, 12,13-{2-[(hexahydro-1H-1,4-diazepin-1-yl)carbonyloxy]-3-hydroxy-butan-1,4-yl}-12,13-dihydro-5,7-dioxo-6H-indolo[2,3-a]pyrrolo[3,4-c]carbazole]",460
14,"O=C1NC(=O)c2c1c1c3ccccc3n3c1c1c2c2ccccc2n1CC(OC(=O)N1CCN(c2ccccn2)CC1)C(O)C3 (stereo not shown) [Cpd 112, 12,13-{2-[(4-pyridin-2-yl-piperazin-1-yl)carbonyloxy]-3-hydroxy-butan-1,4-yl}-12,13-dihydro-5,7-dioxo-6H-indolo[2,3-a]pyrrolo[3,4-c]carbazole]",1080
15,"O=C(NC1CCNCC1)OC1Cn2c3ccccc3c3c4c(c5c6ccccc6n(c5c32)CC1O)C(=O)NC4=O (stereo not shown) [Cpd 113, 12,13-[2-(piperidin-4-yl-carbamoyloxy)-3-hydroxy-butan-1,4-yl]-12,13-dihydro-5,7-dioxo-6H-indolo[2,3-a]pyrrolo[3,4-c]carbazole]",47
16,"CN(C)CCNC(=O)OC1CCCn2c3ccccc3c3c4c(c5c6ccccc6n(c5c32)C1)C(=O)NC4=O (stereo not shown) [Cpd 114, 12,13-{2-[(2-dimethylamino-ethyl)carbamoyloxy]-pentan-1,5-yl}-12,13-dihydro-5,7-dioxo-6H-indolo[2,3-a]pyrrolo[3,4-c]carbazole]",125
17,"CN(C)CCCN1CCN(C(=O)OC2CCCn3c4ccccc4c4c5c(c6c7ccccc7n(c6c43)C2)C(=O)NC5=O)CC1 (stereo not shown) [Cpd 115, 12,13-(2-{[4-(3-dimethylamino-prop-1-yl)piperazin-1-y]carbonyloxy}-pentan-1,5-yl)-12,13-dihydro-5,7-dioxo-6H-indolo[2,3-a]pyrrolo[3,4-c]carbazole]",> 200
18,"CN1CCN(CCCNC(=O)OC2CCCn3c4ccccc4c4c5c(c6c7ccccc7n(c6c43)C2)C(=O)NC5=O)CC1 (stereo not shown) [Cpd 116, 12,13-(2-{[3-(4-methyl-piperazin-1-yl)prop-1-yl]carbamoyloxy}-pentan-1,5-yl)-12,13-dihydro-5,7-dioxo-6H-indolo[2,3-a]pyrrolo[3,4-c]carbazole]",> 200
19,"O=C1NC(=O)c2c1c1c3ccccc3n3c1c1c2c2ccccc2n1CC(O)(C(=O)NCc1ccncc1)C(O)C3 (stereo not shown) [Cpd 117, 12,13-{2-[(pyridin-4-ylmethyl)carbamoyl]-2,3-dihydroxy-butan-1,4-yl}-12,13-dihydro-5,7-dioxo-6H-indolo[2,3-a]pyrrolo[3,4-c]carbazole]",15
20,"O=C1NC(=O)c2c1c1c3ccccc3n3c1c1c2c2ccccc2n1CC(O)(C(=O)NC(CO)CO)C(O)C3 (stereo not shown) [Cpd 118, 12,13-{2-[(1,3-hydroxy-isopropyl)carbamoyl]-2,3-dihydroxy-butan-1,4-yl}-12,13-dihydro-5,7-dioxo-6H-indolo[2,3-a]pyrrolo[3,4-c]carbazole]",36
21,"CN(C)C1CCN(C(=O)C2(O)Cn3c4ccccc4c4c5c(c6c7ccccc7n(c6c43)CC2O)C(=O)NC5=O)C1 (stereo not shown) [Cpd 119, 12,13-{2-[(3-dimethylamino-pyrrolidin-1-yl)carbonyl]-2,3-dihydroxy-butan-1,4-yl}-12,13-dihydro-5,7-dioxo-6H-indolo[2,3-a]pyrrolo[3,4-c]carbazole]",15
22,"O=C1NC(=O)c2c1c1c3ccccc3n3c1c1c2c2ccccc2n1CC(O)(C(=O)NCCCN1CCOCC1)C(O)C3 (stereo not shown) [Cpd 120, 12,13-{2-[(3-morpholin-4-yl-prop-1-yl)carbamoyl]-2,3-dihydroxy-butan-1,4-yl}-12,13-dihydro-5,7-dioxo-6H-indolo[2,3-a]pyrrolo[3,4-c]carbazole]",17
23,"O=C1NC(=O)c2c1c1c3ccccc3n3c1c1c2c2ccccc2n1CC(O)(C(=O)N1CCOCC1)C(O)C3 (stereo not shown) [Cpd 121, 12,13-[2-(morpholin-4-yl-carbonyl)-2,3-dihydroxy-butan-1,4-yl]-12,13-dihydro-5,7-dioxo-6H-indolo[2,3-a]pyrrolo[3,4-c]carbazole]",54
24,"O=C1NC(=O)c2c1c1c3ccccc3n3c1c1c2c2ccccc2n1CC(O)(C(=O)NC1CCOC1=O)C(O)C3 (stereo not shown) [Cpd 122, 12,13-{2-[(2-oxo-tetrahydro-furan-3-yl)carbamoyl]-2,3-dihydroxy-butan-1,4-yl}-12,13-dihydro-5,7-dioxo-6H-indolo[2,3-a]pyrrolo[3,4-c]carbazole]",63
25,"CC(C)NC(=O)C1(O)Cn2c3ccccc3c3c4c(c5c6ccccc6n(c5c32)CC1O)C(=O)NC4=O (stereo not shown) [Cpd 123, 12,13-[2-(isopropyl-carbamoyl)-2,3-dihydroxy-butan-1,4-yl]-12,13-dihydro-5,7-dioxo-6H-indolo[2,3-a]pyrrolo[3,4-c]carbazole]",80
